Source: patent publication US20120129811A1, “TRICYCLIC INHIBITORS OF PRO-MATRIX METALLOPROTEINASE ACTIVATION” (priority 2010, published 2012)
Structures can show the parent of a compound that is named as a salt.

What was measured:
[1] = molecular target: T1, proMMP9(67-444;ΔFnII) (SEQ ID NO:5) (Homo sapiens, UniProt P14780, DEL216-390); assay: ThermoFluor binding assay with proMMP9(67-444;ΔFnII)
T1 construct: start methionine (N); made in house; host or cells: E. coli BL21(DE3) RIL
T1 sequence (P14780 with tags, fused parts or gaps DEL216-390): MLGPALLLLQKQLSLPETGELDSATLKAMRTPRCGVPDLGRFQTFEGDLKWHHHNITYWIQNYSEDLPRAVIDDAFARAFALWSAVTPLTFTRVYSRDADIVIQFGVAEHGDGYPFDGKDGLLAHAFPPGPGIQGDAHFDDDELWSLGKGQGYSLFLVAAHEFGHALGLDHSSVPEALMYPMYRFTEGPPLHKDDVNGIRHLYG
Method in brief: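 Thermal shift of 3.5 μM proMMP9(67-444;ΔFnII), desalted beforehand, with 50 μM 1,8-ANS in 50 mM HEPES pH 7.0, 100 mM NaCl, 2.5 mM MgCl2, 300 μM CaCl2, 0.001% Tween-20. Heated 40–90 °C at 1 °C/min, fluorescence read at 500 nm; binding fitted from Tm shifts using DSC- and ThermoFluor-derived unfolding parameters.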

[2] = molecular target: T2, full-length proMMP9(1-707) activation by catalytic MMP3 (Homo sapiens, UniProt P14780, R574P); assay: proMMP9/MMP3 P126 Activation Assay; type: biochemical
T2 construct: made in house; host or cells: proMMP9: HEK293 (secreted); MMP3: E. coli
T2 sequence (P14780 20-707 R574P): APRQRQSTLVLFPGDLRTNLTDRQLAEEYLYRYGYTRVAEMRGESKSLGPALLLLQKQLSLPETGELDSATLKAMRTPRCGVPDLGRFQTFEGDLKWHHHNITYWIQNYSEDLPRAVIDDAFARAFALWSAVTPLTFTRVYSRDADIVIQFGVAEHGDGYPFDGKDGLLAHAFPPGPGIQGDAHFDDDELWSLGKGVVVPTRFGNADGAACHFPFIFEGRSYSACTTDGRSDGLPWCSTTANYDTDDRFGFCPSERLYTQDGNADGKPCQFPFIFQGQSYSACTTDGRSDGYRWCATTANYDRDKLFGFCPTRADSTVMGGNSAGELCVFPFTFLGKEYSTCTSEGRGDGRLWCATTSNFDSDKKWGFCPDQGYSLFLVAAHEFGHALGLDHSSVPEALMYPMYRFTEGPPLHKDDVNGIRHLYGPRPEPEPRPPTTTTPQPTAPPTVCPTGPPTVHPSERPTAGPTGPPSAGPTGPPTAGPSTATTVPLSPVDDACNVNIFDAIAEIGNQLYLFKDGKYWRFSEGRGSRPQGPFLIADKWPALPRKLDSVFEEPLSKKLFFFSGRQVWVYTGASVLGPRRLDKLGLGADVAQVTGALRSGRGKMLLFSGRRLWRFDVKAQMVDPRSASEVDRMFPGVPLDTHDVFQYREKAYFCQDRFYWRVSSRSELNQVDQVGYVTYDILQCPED
Protocol: proMMP9/MMP3 P126 Activation Assay
The reaction volume was 50 μL. […] Reactivity of residual MMP3 towards P-126 substrate was minimal under these conditions.

[3] = molecular target: T3, proMMP9(20-445;ΔFnII) (SEQ ID NO:6) (Homo sapiens, UniProt P14780, DEL216-390); assay: ThermoFluor binding assay with proMMP9(20-445;ΔFnII)
T3 construct: start methionine (N); made in house; host or cells: E. coli BL21(DE3) RIL
T3 sequence (P14780 with tags, fused parts or gaps DEL216-390): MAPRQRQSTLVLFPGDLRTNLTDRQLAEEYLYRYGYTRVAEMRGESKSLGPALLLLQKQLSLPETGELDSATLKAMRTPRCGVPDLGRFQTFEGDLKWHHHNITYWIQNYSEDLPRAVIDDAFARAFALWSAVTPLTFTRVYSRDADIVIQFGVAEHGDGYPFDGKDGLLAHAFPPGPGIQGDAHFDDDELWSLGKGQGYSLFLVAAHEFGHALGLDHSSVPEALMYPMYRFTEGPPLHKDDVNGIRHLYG
Method in brief: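 Protein thermal stability was measured with 2.8 μM proMMP9(20-445;ΔFnII) and 50 μM 1,8-ANS in 50 mM HEPES pH 7.0, 100 mM NaCl, 0.001% Tween-20, 2.5 mM MgCl2, 300 μM CaCl2, across serial compound dilutions. Samples were heated 40–90° C at 1° C/min with fluorescence read at 500 nm. Tm was fitted, and binding was derived from thermodynamic parameters obtained by DSC and ThermoFluor.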

[4] = molecular target: T4, proMMP13(1-268) activation by plasmin (Homo sapiens, UniProt P45452); assay: ProMMP13/Plasmin P126 Activation Assay; type: biochemical
T4 construct: 6xHis (C); made in house; host or cells: HEK293 (proMMP13)
Protocol: ProMMP13/Plasmin P126 Activation Assay
On the day of assay, proMMP13(1-268) (SEQ ID NO:7) purified from HEK293 cells and plasmin were diluted to 160 nM and 320 nM, respectively, in assay buffer. The reaction volume was 50 μL. […] The plate was sealed and incubated for 40 min at 37° C. […] Plasmin was not reactive towards P-126 substrate under these conditions.

[5] = molecular target: T5, proMMP13(1-268) (SEQ ID NO:7) (Homo sapiens, UniProt P45452); assay: ThermoFluor binding assay with proMMP13(1-268)
T5 construct: 6xHis (C); made in house; host or cells: HEK293 (transient, secreted)
Protocol: The ThermoFluor® (TF) assay is a 384-well plate-based binding assay that measures thermal stability of proteins (Biomol Screen 2001, 6, 429-40; Biochemistry 2005, 44, 5258-66). The experiments were carried out using instruments available from Johnson & Johnson Pharmaceutical Research & Development, LLC. TF dye used in all experiments was […] (1,8-ANS) (Invitrogen: A-47).
Compounds were arranged in a pre-dispensed plate (Greiner Bio-one: 781280), wherein compounds were serially diluted in 100% DMSO across 11 columns within a series. Columns 12 and 24 were used as DMSO reference and contained no compound. For multiple compound concentration-response experiments, the compound aliquots (50 nL) were robotically predispensed directly into black 384-well polypropylene PCR microplates (Abgene: TF-0384/k) using a Cartesian Hummingbird liquid handler (DigiLab, Holliston, Mass.). Following compound dispense, protein and dye solutions were added to achieve the final assay volume of 3 μL. The assay solutions were overlayed with 1 μL of silicone oil (Fluka, type DC 200: 85411) to prevent evaporation.
Assay plates were robotically loaded onto a thermostatically controlled PCR-type thermal block and then heated from 40 to 90° C. at a ramp-rate of 1° C./min for all experiments. Fluorescence was measured by continuous illumination with UV light (Hamamatsu LC6) supplied via fiber optics and filtered through a band-pass filter (380-400 nm; >60D cutoff). Fluorescence emission of the entire 384-well plate was detected by measuring light intensity using a CCD camera (Sensys, Roper Scientific) filtered to detect 500±25 nm, resulting in simultaneous and independent readings of all 384 wells. A single image with 20-sec exposure time was collected at each temperature, and the sum of the pixel intensity in a given area of the assay plate was recorded vs temperature and fit to standard equations to yield the Tm (J Biomol Screen 2001, 6, 429-40).
Thermodynamic parameters necessary for fitting compound binding for each proMMP were estimated by differential scanning calorimetry (DSC) and from ThermoFluor® data. The heat capacity of unfolding for each protein was estimated from the molecular weight and from ThermoFluor® dosing data.
ThermoFluor® with proMMP13(1-268) (SEQ ID NO: 7)
The proMMP13(1-268) (SEQ ID NO:7) protein sample preparations included a desalting buffer exchange step via a PD-10 gravity column (GE Healthcare). The desalting buffer exchange was performed prior to diluting the protein to the final assay concentration of 3.5 μM. The concentration of proMMP13(1-268) (SEQ ID NO:7) was estimated spectrophotometrically based on a calculated extinction coefficient of ε280=37000 M^−1 cm^−1, a calculated molecular weight of 30.8 kDa, and calculated pI of 5.33. ThermoFluor® reference conditions were defined as follows: 100 μg/mL proMMP13(1-268) (SEQ ID NO:7), 25 μM 1,8-ANS, pH 7.0 Buffer (50 mM HEPES pH 7.0, 100 mM NaCl, 0.001% Tween-20, 2.5 mM MgCl2, 300 μM CaCl2). The thermodynamic parameters for proMMP13(1-268) (SEQ ID NO:7) are as follows: Tm (° C.)=67 (+/−0.1), ΔUH(Tm)) (cal mol^−1)=107000(+/−5000), ΔUSTm (cal mol^−1 K^−1)=318, ΔUCp (cal mol^−1 K^−1)=2600.

Row | Compound | Kd [1] | IC50 [2] | Kd [3] | IC50 [4] | Kd [5]
1 | COc1ccc(S(C)(=O)=O)cc1Nc1nc2c(ccc3c2ncn3C)s1 [Example 52, (5-Methanesulfonyl-2-methoxy-phenyl)-(6-methyl-6H-imidazo[4′,5′:3,4]benzo[2,1-d]thiazol-2-yl)-amine.HCl] | 0.6 µM | 0.16 µM | 1.4 µM |  | 2.2 µM
2 | COc1ccc(S(N)(=O)=O)cc1Nc1nc2c(ccc3c2ncn3C)s1 [Example 54, 4-Methoxy-3-(6-methyl-6H-imidazo[4′,5′:3,4]benzo[2,1-d]thiazol-2-ylamino)-benzenesulfonamide.HCl] | 1.1 µM | 0.24 µM | 1.6 µM |  | 11 µM
3 | COc1ccc(S(=O)(=O)N(C)C)cc1Nc1nc2c(ccc3c2ncn3C)s1 [Example 55, 4-Methoxy-N,N-dimethyl-3-(6-methyl-6H-imidazo[4′,5′:3,4]benzo[2,1-d]thiazol-2-ylamino)-benzenesulfonamide.HCl] | 2.2 µM | 0.53 µM | 6.7 µM |  | 2.1 µM
4 | COc1cc(C)c(C(N)=O)cc1Nc1nc2c(ccc3c2ncn3C)s1 [Example 56, 4-Methoxy-2-methyl-5-(6-methyl-6H-imidazo[4′,5′:3,4]benzo[2,1-d]thiazol-2-ylamino)-benzamide.HCl] | 3.3 µM | 1.1 µM | 1 µM |  | 9.8 µM
5 | Cn1cnc2c3nc(Nc4ccccc4OC(F)(F)F)sc3ccc21 [Example 58, (6-Methyl-6H-imidazo[4′,5′:3,4]-benzo[2,1-d]thiazol-2-yl)-(2-trifluoromethoxy-phenyl)-amine.HCl] | 0.93 µM | 0.38 µM | 2.6 µM |  | 21 µM
6 | CC(C)Oc1ccc(F)cc1Nc1nc2c(ccc3c2ncn3C)s1 [Example 59, (5-Fluoro-2-isopropoxy-phenyl)-(6-methyl-6H-imidazo[4′,5′:3,4]-benzo[2,1-d]thiazol-2-yl)-amine.HCl] | 0.68 µM | 0.45 µM | 2 µM |  | 3.2 µM
7 | CCS(=O)(=O)c1ccc(OC)c(Nc2nc3c(ccc4c3ncn4C)s2)c1 [Example 60, (5-Ethanesulfonyl-2-methoxy-phenyl)-(6-methyl-6H-imidazo[4′,5′:3,4]-benzo[2,1-d]thiazol-2-yl)-amine.HCl] | 0.97 µM | 0.34 µM | 2.8 µM |  | 1.5 µM
8 | COC(=O)c1ccc(OC)c(Nc2nc3c(ccc4c3ncn4C)s2)c1 [Example 61, 4-Methoxy-3-(6-methyl-6H-imidazo[4′,5′:3,4]benzo[2,1-d]thiazol-2-ylamino)-benzoic acid methyl ester.HCl] | 0.86 µM | 0.65 µM | 3.2 µM |  | 2.1 µM
9 | CCc1ccccc1Nc1nc2c(ccc3c2ncn3C)s1 [Example 62, (2-Ethyl-phenyl)-(6-methyl-6H-imidazo[4′,5′:3,4]benzo[2,1-d]thiazol-2-yl)-amine.HCl] | 1.6 µM | 1.1 µM | 3.9 µM |  | 51 µM
10 | COc1c(F)cc(F)cc1Nc1nc2c(ccc3c2ncn3C)s1 [Example 63, (3,5-Difluoro-2-methoxy-phenyl)-(6-methyl-6H-imidazo[4′,5′:3,4]benzo[2,1-d]thiazol-2-yl)-amine.HCl] | 0.45 µM | 0.69 µM | 1.2 µM |  | 2.3 µM
11 | COc1ccc(S(C)(=O)=O)cc1Nc1nc2c(ccc3c2cnn3C)s1 [Example 92, (5-Methanesulfonyl-2-methoxy-phenyl)-(6-methyl-6H-3-thia-1,6,7-triaza-as-indacen-2-yl)-amine.HCl] | 0.41 µM | 0.13 µM | 1.1 µM | ~6 µM | 
12 | COc1ccc(C(N)=O)cc1Nc1nc2c(ccc3c2cnn3C)s1 [Example 95, 4-Methoxy-3-(6-methyl-6H-3-thia-1,6,7-triaza-as-indacen-2-ylamino)-benzamide.HCl] | 0.36 µM | 0.17 µM | 0.19 µM | 1.8 µM | 

Continued, values first:

Row | Kd [1] | IC50 [2] | Kd [3] | IC50 [4] | Kd [5] | Compound
13 | 0.1 µM | 0.092 µM | 0.17 µM | 1.9 µM | 0.81 µM | CC(C)Oc1ccc(C(N)=O)cc1Nc1nc2c(ccc3c2ncn3C)s1 [Example 22, 4-Isopropoxy-3-(6-methyl-6H-imidazo[4′,5′:3,4]benzo[2,1-d]thiazol-2-ylamino)-benzamide.HCl]
14 | 2.9 µM | 1.3 µM | 0.95 µM |  | 9 µM | CC(C)Oc1ccc(C(N)=O)cc1Nc1nc2c(ccc3ncccc32)s1 [Example 91, 4-Isopropoxy-3-(thiazolo[4,5-f]quinolin-2-ylamino)-benzamide.TFA]
15 | 25 µM | 1.6 µM | 3 µM |  | 14 µM | CC(C)Oc1ccc(C(N)=O)cc1Nc1nc2c(s1)CCc1cnccc1-2 [Example 115, 3-(4,5-Dihydro-thiazolo[4,5-f]isoquinolin-2-ylamino)-4-isopropoxy-benzamide.TFA]
16 | 7.3 µM | 0.98 µM | 1.8 µM |  | 8.7 µM | CC(C)Oc1ccc(C(N)=O)cc1Nc1nc2c(s1)CCc1ccncc1-2 [Example 116, 3-(4,5-Dihydro-thiazolo[5,4-h]isoquinolin-2-ylamino)-4-isopropoxy-benzamide.TFA]
17 | 3.5 µM | 6 µM | 8.8 µM |  | 32 µM | COc1ccc(C(N)=O)cc1Nc1nc2c(s1)CCc1ncccc1-2 [Example 117, 3-(4,5-Dihydro-thiazolo[4,5-f]quinolin-2-ylamino)-4-methoxy-benzamide]
